Values of other authors as cited in US20100143470A1, “CONTROLLED RELEASE PHARMACEUTICAL COMPOSITION CONTAINING THIAZIDES AND ANGIOTENSIN-II-RECEPTOR BLOCKERS” (HANALL PHARMACEUTICAL COMPANY, LTD, priority 2006, published 2010).

Experiments:
[1] = orally administered for hypertension therapy

Row | blood half-time (in vivo) [h] | time to reach the highest blood concentration (after absorption from the small intestine) [h] | blood elimination rate (in vivo) [mL/min] | SMILES | diuretic effect is sustained [1] [h]
1 | 5.6 to 14.8 |  |  | NS(=O)(=O)c1cc2c(cc1Cl)NCNS2(=O)=O [Hydrochlorothiazide, 6-chloro-3,4-dihydro-2H-1,2,4-benzothiadiazine-7-sulfonamide-1,1-dioxide] | 6 to 12
2 |  | ≤ 1 | 600 | CCCCc1nc(Cl)c(CO)n1Cc1ccc(-c2ccccc2-c2nn[nH]n2)cc1 [losartan] | 
